Kd and EC50 data for six molecules are collected here from patent publication US10947252B2, “Inhibitors of KEAP1-Nrf2 protein-protein interaction” (Janssen Pharmaceutica NV, priority 2018, dated 2021).

Some results are limits rather than exact numbers.

In general, Kd refers to a measure of binding affinity in units of concentration. Usually EC50 stands for the concentration giving half of the maximal effect.

Experiment [1] concerns the target Kelch domain of human KEAP1 (321-624 aa) (Homo sapiens (Human), UniProt Q14145). Description: KEAP1 KELCH ThermoFluor binding assay.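 Also: Ligand-induced melting temperature shift of E. coli-expressed KEAP1 Kelch protein, Kd estimated from concentration-response curves of ΔTm.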 Particulars: KEAP Kelch […], 1,8-ANS, pH 7.0, average of results obtained, read-out: Tf Kd. (In general: Differential scanning fluorimetry follows unfolding on heating by fluorescence.)
In experiment [2] the test system is Glo-Response ARE-luc2P HEK293 cell line. Description: ARE luciferase reporter cell-based assay.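 Also: luciferase signal tracks Nrf2 activation of the ARE once compounds disrupt KEAP1-Nrf2 binding, read with One-Glo reagent, DMSO serving as low control.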 Particulars: Homo sapiens, HEK293, 24 h, average of results obtained. Background: A reporter such as luciferase makes a cellular process visible.

Sequence of Kelch domain of human KEAP1 (321-624 aa) (Q14145 321-624): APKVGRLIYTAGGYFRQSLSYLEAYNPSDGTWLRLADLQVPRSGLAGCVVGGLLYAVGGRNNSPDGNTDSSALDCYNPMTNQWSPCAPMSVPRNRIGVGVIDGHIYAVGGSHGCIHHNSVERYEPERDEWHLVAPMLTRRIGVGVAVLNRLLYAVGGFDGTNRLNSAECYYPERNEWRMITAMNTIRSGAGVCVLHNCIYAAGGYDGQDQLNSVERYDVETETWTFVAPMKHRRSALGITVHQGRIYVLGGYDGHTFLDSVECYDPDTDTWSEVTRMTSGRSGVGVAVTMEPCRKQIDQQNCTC

Take `Cc1ccc([C@H](c2ccn3c(C(F)F)nnc3c2C)C(C)(C)C(=O)O)nc1CN1CC2(CCOCC2)Oc2nc(OCCN3CCCCC3)c(C)cc2S1(=O)=O` (single isomer, unassigned) [Example 355, (*R)-3-(3-(Difluoromethyl)-8-methyl-[1,2,4]triazolo[4,3-a]pyridin-7-yl)-2,2-dimethyl-3-(5-methyl-6-((8′-methyl-1′,1′-dioxido-7′-(2-(piperidin-1-yl)ethoxy)-2,3,5,6-tetrahydrospiro[pyran-4,4′-pyrido[2,3-b][1,4,5]oxathiazepin]-2′(3′H)-yl)methyl)pyridin-2-yl)propanoic Acid]: the Kd in experiment [1] came out at 3070 nM. In addition, the concentration giving a half-maximal response (EC50) in experiment [2] was 1140 nM.

On to `Cc1ccc([C@H](CC(=O)O)c2ccn3c(C(F)(F)F)nnc3c2C)cc1CN1CC2(COC2)Oc2ccc(F)cc2S1(=O)=O` (single isomer, unassigned) [Example 99, (*S)-3-(3-((8-Fluoro-1,1-dioxidospiro[benzo[b][1,4,5]oxathiazepine-4,3′-oxetan]-2(3H)-yl)methyl]-4-methylphenyl)-3-(8-methyl-3-(trifluoromethyl)-[1,2,4]triazolo[4,3-a]pyridin-7-yl)propanoic Acid], for which, in experiment [1], the Kd was less than 1 nM. This molecule registered a half-maximal effective concentration (EC50) in experiment [2] of 5.8 nM.

Take `Cc1ccc([C@H](CC(=O)O)c2ccn3c(C(F)(F)F)nnc3c2C)cc1CN1CC2(CC2)Oc2ncc(Cl)cc2S1(=O)=O` (single isomer, unassigned) [Example 195, (*S)-3-(3-((8′-Chloro-1′,1′-dioxidospiro[cyclopropane-1,4′-pyrido[2,3-b][1,4,5]oxathiazepin]-2′(3′H)-yl)methyl)-4-methylphenyl)-3-(8-methyl-3-(trifluoromethyl)-[1,2,4]triazolo[4,3-a]pyridin-7-yl)propanoic Acid]: the Kd in experiment [1] was less than 1 nM. For the same molecule, the EC50 in experiment [2] stood at 5.7 nM.

Regarding `Cc1ccc(C(CC(=O)O)c2ccn3c(C(F)(F)F)nnc3c2C)cc1CN1CC2CCC(F)(F)CN2c2ncccc2S1(=O)=O` (stereo not drawn) [Example 452, 3-(3-((10,10-Difluoro-5,5-dioxido-7,7a,8,9,10,11-hexahydro-6H-dipyrido[2,1-d:2′,3′-f][1,2,5]thiadiazepin-6-yl)methyl)-4-methylphenyl)-3-(8-methyl-3-(trifluoromethyl)-[1,2,4]triazolo[4,3-a]pyridin-7-yl)propanoic Acid], the Kd in experiment [1] is less than 1 nM. In experiment [2], this molecule returned an EC50 of 116 nM.

Turning to `Cc1ccc([C@H](CC(=O)O)c2ccn3c(C4CC4)nnc3c2C)cc1CN1CC2(CC2)Oc2ncc(F)cc2S1(=O)=O` (single isomer, unassigned) [Example 230, (*S)-3-(3-Cyclopropyl-8-methyl-[1,2,4]triazolo[4,3-a]pyridin-7-yl)-3-(3-((8′-fluoro-1′,1′-dioxidospiro[cyclopropane-1,4′-pyrido[2,3-b][1,4,5]oxathiazepin]-2′(3′H)-yl)methyl)-4-methylphenyl)propanoic Acid], the Kd in experiment [1] was less than 1 nM. The molecule further displayed an EC50 in experiment [2] of 480 nM.

Consider `Cc1ccc([C@H](c2ccn3c(C(F)(F)F)nnc3c2C)C(C)(C)C(=O)O)cc1CN1CC2(CCOCC2)Oc2nc(N[C@H](C)CCO)ccc2S1(=O)=O` (single isomer, unassigned) [Example 120, (*R)-3-(3-((7′-(((R)-4-Hydroxybutan-2-yl)amino)-1′,1′-dioxido-2,3,5,6-tetrahydrospiro[pyran-4,4′-pyrido[2,3-b][1,4,5]oxathiazepin]-2′(3′H)-yl)methyl)-4-methylphenyl)-2,2-dimethyl-3-(8-methyl-3-(trifluoromethyl)-[1,2,4[triazolo[4,3-a]pyridine-7-yl)propanoic Acid], for which the Kd in experiment [1] turned out to be 8560 nM. In addition, the EC50 in experiment [2] was 19400 nM.
